Data as given in US3962243A (Laboratories Made, S.A., priority 1974, dated 1976).

Legend:
[1] = system: rat complete brain homogenates; test: Action on cerebral oxidative activity (oxygen consumption); conditions: 1 × 10^-^3 and 1 × 10^-^4 M
[2] = system: mice; test: Sub-acute and chronic toxicity; assay type: in vivo; conditions: administration to mice over periods of 2 and 6 months
[3] = system: bronchial spasm; test: Bronchial spasmolytic action; assay type: in vivo

Substance: 2-[(2-dimethylaminoethyl) (p-methoxybenzyl)amino]-pyridine 1,2,3,6-tetrahydro-1,3-dimethyl-2,6-dioxopurin-7-acetate
- inhibition of the oxygen consumption [1]: strong inhibition of the oxygen consumption
- microscopic or macroscopic organ alteration [2]: No microscopic or macroscopic organ alteration
- duration of activity, bronchial spasmolytic action ([3]; in vivo): over 5 hours
- action against bronchial spasm by route ([3]; oral, rectal, intramuscular and intravenous): Effective action against bronchial spasm is obtainable by all routes
- active dose, bronchial spasmolytic action ([3]; very small doses): 6 µg/kg
